Experimental data: patent publication US9149038B2, “4-amino-6-(heterocyclic)picolinates and 6-amino-2-(heterocyclic)pyrimidine-4-carboxylates and their use as herbicides” (Dow AgroSciences LLC, priority 2013, dated 2015)
Where two headings read alike, the source gives them in different places.

Legend:
[1] = test system: Key Grass and Sedge Weeds as well as Grass Crops; assay: Post-Emergent Test II: postemergent herbicidal activity, visual rating after 14 d (Table 8); type: in vivo; details: post-emergence, 336 h; for pest or weed control at 35 g/ha: 35 g ai/ha; for pest or weed control at 70 g/ha: 70 g ai/ha; for pest or weed control at 140 g/ha: 140 g ai/ha
Summary of the method: (§1)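 Plants were raised in a greenhouse for 7-21 d and treated once at the first or second true leaf stage. Compounds, dissolved in 97:3 acetone:DMSO then diluted into an aqueous acetone/isopropanol/crop oil/Triton X-155 carrier, were applied by overhead track sprayer at 187 L/ha. After 14 d with subirrigation, injury was scored visually from 0 (none) to 100 (complete kill).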

[2] = test system: Key Broadleaf Weed and Crop Species; assay: Post-Emergent Test II: postemergent herbicidal activity, visual rating after 14 d (Table 7); type: in vivo; details: post-emergence, 336 h; for pest or weed control at 35 g/ha: 35 g ai/ha; for pest or weed control at 70 g/ha: 70 g ai/ha; for pest or weed control at 140 g/ha: 140 g ai/ha
Summary of the method: as §1

[3] = barnyardgrass (Echinochloa crus-galli), read-out: Visual Growth Reduction (%) 14 Days After Application, ECHCG
[4] = giant foxtail (Setaria faberi), read-out: Visual Growth Reduction (%) 14 Days After Application, SETFA
[5] = maize, corn (Zea mays), read-out: Visual Growth Reduction (%) 14 Days After Application, ZEAMX
[6] = rice (Oryza sativa), read-out: Visual Growth Reduction (%) 14 Days After Application, ORYSA
[7] = wheat, spring (Triticum aestivum), read-out: Visual Growth Reduction (%) 14 Days After Application, TRZAS
[8] = yellow nutsedge (Cyperus esculentus), read-out: Visual Growth Reduction (%) 14 Days After Application, CYPES
[9] = ABUTH: velvetleaf (Abutilon theophrasti), read-out: Visual Growth Reduction (%) 14 Days After Application ABUTH
[10] = BRSNN: oilseed rape, canola (Brassica napus), read-out: Visual Growth Reduction (%) 14 Days After Application BRSNN
[11] = CHEAL: lambsquarters (Chenopodium album), read-out: Visual Growth Reduction (%) 14 Days After Application CHEAL
[12] = EPHHL: wild poinsettia (Euphorbia heterophylla), read-out: Visual Growth Reduction (%) 14 Days After Application EPHHL
[13] = HELAN: sunflower (Helianthus annuus), read-out: Visual Growth Reduction (%) 14 Days After Application HELAN

`COC(=O)c1nc(-c2cccc3c2OCC3)c(F)c(N)c1Cl` [Compound 102] showed a pest or weed control at 35 g/ha [1, 3] of 0 to 29%, a pest or weed control at 70 g/ha [1, 3] of 0 to 29% and a pest or weed control at 140 g/ha [1, 3] of 0 to 29%. For the same molecule, the pest or weed control at 35 g/ha [1, 4] was 0 to 29%, the pest or weed control at 70 g/ha [1, 4] was 0 to 29% and the pest or weed control at 140 g/ha [1, 4] was 0 to 29%. The pest or weed control at 35 g/ha [1, 5] was 0 to 29%, the pest or weed control at 70 g/ha [1, 5] was 0 to 29% and the pest or weed control at 140 g/ha [1, 5] was 0 to 29%. The pest or weed control at 35 g/ha [1, 6] was 0 to 29%, the pest or weed control at 70 g/ha [1, 6] was 0 to 29% and the pest or weed control at 140 g/ha [1, 6] was 0 to 29%. The pest or weed control at 35 g/ha [1, 7] was 0 to 29%, the pest or weed control at 70 g/ha [1, 7] was 0 to 29% and the pest or weed control at 140 g/ha [1, 7] was 0 to 29%. The pest or weed control at 35 g/ha [1, 8] was 0 to 29%, the pest or weed control at 70 g/ha [1, 8] was 0 to 29% and the pest or weed control at 140 g/ha [1, 8] was 0 to 29%. It also gave a pest or weed control at 35 g/ha [2, 9] of 0 to 29%, a pest or weed control at 70 g/ha [2, 9] of 0 to 29% and a pest or weed control at 140 g/ha [2, 9] of 45 to 59%. The pest or weed control at 35 g/ha [2, 10] was 0 to 29%, the pest or weed control at 70 g/ha [2, 10] was 0 to 29% and the pest or weed control at 140 g/ha [2, 10] was 0 to 29%. It also gave a pest or weed control at 35 g/ha [2, 11] of 95 to 100%, a pest or weed control at 70 g/ha [2, 11] of 95 to 100% and a pest or weed control at 140 g/ha [2, 11] of 95 to 100%. The pest or weed control at 35 g/ha [2, 12] was 0 to 29%, the pest or weed control at 70 g/ha [2, 12] was 0 to 29% and the pest or weed control at 140 g/ha [2, 12] was 0 to 29%. It also gave a pest or weed control at 35 g/ha [2, 13] of 75 to 84%, a pest or weed control at 70 g/ha [2, 13] of 85 to 94% and a pest or weed control at 140 g/ha [2, 13] of 85 to 94%.
